Experimental findings from ChEMBL document CHEMBL2073858, “Cloning and characterization of a pH-sensing regulatory factor that modulates transport activity of the human H+/peptide cotransporter, PEPT1” (Biochem Biophys Res Commun, 1997) are described below.

The assay addresses T1, Solute carrier family 15 member 1 (Homo sapiens) (UniProt P46059).
T1 sequence (whole entry): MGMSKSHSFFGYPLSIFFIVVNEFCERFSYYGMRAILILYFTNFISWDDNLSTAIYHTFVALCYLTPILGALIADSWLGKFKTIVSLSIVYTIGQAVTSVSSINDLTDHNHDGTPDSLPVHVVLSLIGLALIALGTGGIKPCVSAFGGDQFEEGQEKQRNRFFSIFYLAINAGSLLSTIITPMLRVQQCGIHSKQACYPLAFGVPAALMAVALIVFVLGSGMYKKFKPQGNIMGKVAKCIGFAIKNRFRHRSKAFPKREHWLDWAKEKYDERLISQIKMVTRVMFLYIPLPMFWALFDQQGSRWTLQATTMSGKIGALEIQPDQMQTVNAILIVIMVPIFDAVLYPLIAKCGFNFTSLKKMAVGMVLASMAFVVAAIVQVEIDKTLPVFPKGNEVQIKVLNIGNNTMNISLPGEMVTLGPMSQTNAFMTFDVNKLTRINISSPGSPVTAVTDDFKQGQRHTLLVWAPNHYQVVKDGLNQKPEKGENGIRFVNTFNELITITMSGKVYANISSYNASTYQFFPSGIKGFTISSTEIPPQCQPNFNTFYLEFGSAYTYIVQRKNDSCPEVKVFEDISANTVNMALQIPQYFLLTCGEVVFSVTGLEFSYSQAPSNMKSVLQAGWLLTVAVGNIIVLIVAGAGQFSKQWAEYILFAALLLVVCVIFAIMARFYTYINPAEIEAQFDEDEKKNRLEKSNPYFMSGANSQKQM
Description: TP_TRANSPORTER: uptake in Xenopus laevis oocytes. It is filed as functional, cell-based. The settings on record: Oocyte.

Square brackets hold non-standard residues; d marks the D form. Peptide text beside a SMILES is read from it. Sar = CNCC(=O)O

For `CN(CC(=O)O)C(=O)CN` (H-Gly-[Sar]-OH), the Activity result was “substrate [+]”.
